For data set [1], the target named is T1, DPP4 (dipeptidyl peptidase 4) (Homo sapiens, UniProt P27487). Description: Drug degradation assessed as recombinant human DPP4-mediated cleavage by measuring compound remaining after 12 hrs by RP-HPLC analysis. The note with it: read-out: Stability. It counts as ADME.
Data set [2] is described as follows: Retention time of compound over 30 mins by HPLC analysis. It counts as physicochemical. Particulars: 0.5 h.
For data set [3], the target named is T1, DPP4 (dipeptidyl peptidase 4). Description: Half life of compound assessed as recombinant human DPP4-mediated cleavage by RP-HPLC analysis. Type of data set: ADME.
The target is the same in data set [4]. Description: Drug degradation assessed as recombinant human DPP4-mediated cleavage by measuring compound remaining after 2 hrs by RP-HPLC analysis. It counts as ADME. Particulars: read-out: Stability.
Data set [5] has the same target. Description: Drug degradation assessed as recombinant human DPP4-mediated cleavage by measuring compound remaining after 1 hr by RP-HPLC analysis. Particulars: read-out: Stability. It counts as ADME.
Data set [6] shares this target. Description: Drug degradation assessed as recombinant human DPP4-mediated cleavage by measuring compound remaining after 8 hrs by RP-HPLC analysis. It counts as ADME. Particulars: read-out: Stability.
Data set [7] shares this target. Description: Drug degradation assessed as recombinant human DPP4-mediated cleavage by measuring compound remaining after 4 hrs by RP-HPLC analysis. It counts as ADME. Particulars: read-out: Stability.

For orientation: half-life means the time in which the quantity being followed falls by half.

Some results are limits rather than exact numbers.

T1 sequence (P27487 whole entry): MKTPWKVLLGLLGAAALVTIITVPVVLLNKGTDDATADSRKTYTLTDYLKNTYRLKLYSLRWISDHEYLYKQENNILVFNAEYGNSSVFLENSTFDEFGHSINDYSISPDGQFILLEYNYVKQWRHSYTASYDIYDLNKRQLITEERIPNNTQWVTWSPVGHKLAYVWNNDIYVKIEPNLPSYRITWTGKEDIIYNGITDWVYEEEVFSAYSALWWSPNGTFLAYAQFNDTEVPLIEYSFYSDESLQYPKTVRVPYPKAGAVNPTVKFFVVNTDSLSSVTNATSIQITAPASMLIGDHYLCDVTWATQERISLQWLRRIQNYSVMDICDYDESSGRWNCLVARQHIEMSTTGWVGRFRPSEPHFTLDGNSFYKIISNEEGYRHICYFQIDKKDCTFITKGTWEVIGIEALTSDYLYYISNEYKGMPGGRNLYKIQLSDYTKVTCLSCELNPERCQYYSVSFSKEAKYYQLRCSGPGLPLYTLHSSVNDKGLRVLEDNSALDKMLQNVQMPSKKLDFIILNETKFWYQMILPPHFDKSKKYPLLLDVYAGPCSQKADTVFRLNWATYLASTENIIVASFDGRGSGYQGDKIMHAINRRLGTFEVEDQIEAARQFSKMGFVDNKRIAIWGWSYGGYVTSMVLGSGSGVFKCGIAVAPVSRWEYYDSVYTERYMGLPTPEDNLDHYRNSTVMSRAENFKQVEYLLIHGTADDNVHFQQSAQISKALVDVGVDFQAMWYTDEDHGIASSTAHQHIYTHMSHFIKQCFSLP

Consider `CC[C@H](C)[C@H](NC(=O)[C@H](Cc1ccccc1)NC(=O)[C@H](CCC(=O)O)NC(=O)[C@H](CCCCN)NC(=O)[C@H](C)NC(=O)[C@H](C)NC(=O)[C@H](CCC(N)=O)NC(=O)CNC(=O)[C@H](CCC(=O)O)NC(=O)[C@H](CC(C)C)NC(=O)[C@H](Cc1ccc(O)cc1)NC(=O)[C@H](CO)NC(=O)[C@H](CO)NC(=O)[C@@H](NC(=O)[C@H](CC(=O)O)NC(=O)[C@H](CO)NC(=O)[C@@H](NC(=O)[C@H](Cc1ccccc1)NC(=O)[C@@H](NC(=O)CNC(=O)[C@H](CCC(=O)O)N(C)C(=O)[C@H](C)NC(=O)[C@@H](N)Cc1cnc[nH]1)[C@@H](C)O)[C@@H](C)O)C(C)C)C(=O)N[C@@H](C)C(=O)N[C@@H](Cc1c[nH]c2ccccc12)C(=O)N[C@@H](CC(C)C)C(=O)N[C@H](C(=O)N[C@@H](CCCCN)C(=O)NCC(=O)N[C@@H](CCCNC(=N)N)C(N)=O)C(C)C`, for which the remaining at 12 h in data set [1] was 100%. Besides, the Retention_time in data set [2] turned out to be 14.612 min. The half-life in data set [3] is over 96 h. Further, the remaining at 2 h in data set [4] is 100%. Besides, the remaining at 1 h in data set [5] was 100%. Also, in data set [6], the remaining at 8 h was determined as 100%. Besides, the remaining at 4 h in data set [7] came to 100%.
As to `CC[C@H](C)[C@H](NC(=O)[C@H](Cc1ccccc1)NC(=O)[C@H](CCC(=O)O)NC(=O)[C@H](CCCCN)NC(=O)[C@H](C)NC(=O)[C@H](C)NC(=O)[C@H](CCC(N)=O)NC(=O)CNC(=O)[C@H](CCC(=O)O)NC(=O)[C@H](CC(C)C)NC(=O)[C@H](Cc1ccc(O)cc1)NC(=O)[C@H](CO)NC(=O)[C@H](CO)NC(=O)[C@@H](NC(=O)[C@H](CC(=O)O)NC(=O)[C@H](CO)NC(=O)[C@@H](NC(=O)[C@H](Cc1ccccc1)NC(=O)[C@@H](NC(=O)CNC(=O)[C@H](CCC(=O)O)NC(=O)[C@H](C)N(C)C(=O)[C@@H](N)Cc1cnc[nH]1)[C@@H](C)O)[C@@H](C)O)C(C)C)C(=O)N[C@@H](C)C(=O)N[C@@H](Cc1c[nH]c2ccccc12)C(=O)N[C@@H](CC(C)C)C(=O)N[C@H](C(=O)N[C@@H](CCCCN)C(=O)NCC(=O)N[C@@H](CCCNC(=N)N)C(N)=O)C(C)C`, the remaining at 12 h in data set [1] is 0%. This molecule came in with a Retention_time in data set [2] of 14.702 min. Also, in data set [3], the half-life was 0.83 h. Further, the remaining at 2 h in data set [4] was 17.6%. The remaining at 1 h in data set [5] was 42.7%. Also, the remaining at 8 h in data set [6] is 0%. In data set [7], the remaining at 4 h stood at 4.3%.
With `CC[C@H](C)[C@H](NC(=O)[C@H](Cc1ccccc1)NC(=O)[C@H](CCC(=O)O)NC(=O)[C@H](CCCCN)NC(=O)[C@H](C)NC(=O)[C@H](C)NC(=O)[C@H](CCC(N)=O)NC(=O)CNC(=O)[C@H](CCC(=O)O)NC(=O)[C@H](CC(C)C)NC(=O)[C@H](Cc1ccc(O)cc1)NC(=O)[C@H](CO)NC(=O)[C@H](CO)NC(=O)[C@@H](NC(=O)[C@H](CC(=O)O)NC(=O)[C@H](CO)NC(=O)[C@@H](NC(=O)[C@H](Cc1ccccc1)N(C)C(=O)[C@@H](NC(=O)CNC(=O)[C@H](CCC(=O)O)NC(=O)[C@H](C)NC(=O)[C@@H](N)Cc1cnc[nH]1)[C@@H](C)O)[C@@H](C)O)C(C)C)C(=O)N[C@@H](C)C(=O)N[C@@H](Cc1c[nH]c2ccccc12)C(=O)N[C@@H](CC(C)C)C(=O)N[C@H](C(=O)N[C@@H](CCCCN)C(=O)NCC(=O)N[C@@H](CCCNC(=N)N)C(=O)O)C(C)C`, in data set [1], the remaining at 12 h is 6.1%. Further, in data set [2], the Retention_time came to 14.127 min. Moreover, the half-life in data set [3] was 3.46 h. Besides, the remaining at 2 h in data set [4] is 66.3%. Also, in data set [5], the remaining at 1 h was found to be 79.4%. Also, the remaining at 8 h in data set [6] is 17.6%. Besides, in data set [7], the remaining at 4 h is 42.7%.
`CC[C@H](C)[C@H](NC(=O)[C@H](Cc1ccccc1)NC(=O)[C@H](CCC(=O)O)NC(=O)[C@H](CCCCN)NC(=O)[C@H](C)NC(=O)[C@H](C)NC(=O)[C@H](CCC(N)=O)NC(=O)CNC(=O)[C@H](CCC(=O)O)NC(=O)[C@H](CC(C)C)NC(=O)[C@H](Cc1ccc(O)cc1)NC(=O)[C@H](CO)NC(=O)[C@H](CO)NC(=O)[C@@H](NC(=O)[C@H](CC(=O)O)NC(=O)[C@H](CO)NC(=O)[C@@H](NC(=O)[C@H](Cc1ccccc1)NC(=O)[C@@H](NC(=O)CNC(=O)[C@H](CCC(=O)O)NC(=O)[C@H](C)NC(=O)[C@@H](N)Cc1c[nH]cn1)[C@@H](C)O)[C@@H](C)O)C(C)C)C(=O)N[C@@H](C)C(=O)N[C@@H](Cc1c[nH]c2ccccc12)C(=O)N[C@@H](CC(C)C)C(=O)N[C@H](C(=O)N[C@@H](CCCCN)C(=O)NCC(=O)N[C@@H](CCCNC(=N)N)C(N)=O)C(C)C` gave a Retention_time in data set [2] of 14.611 min.
In the case of `CC[C@H](C)[C@H](NC(=O)[C@H](Cc1ccccc1)NC(=O)[C@H](CCC(=O)O)NC(=O)[C@H](CCCCN)NC(=O)[C@H](C)NC(=O)[C@H](C)NC(=O)[C@H](CCC(N)=O)NC(=O)CNC(=O)[C@H](CCC(=O)O)NC(=O)[C@H](CC(C)C)NC(=O)[C@H](Cc1ccc(O)cc1)NC(=O)[C@H](CO)NC(=O)[C@H](CO)NC(=O)[C@@H](NC(=O)[C@H](CC(=O)O)NC(=O)[C@H](CO)NC(=O)[C@@H](NC(=O)[C@H](Cc1ccccc1)NC(=O)[C@H]([C@@H](C)O)N(C)C(=O)CNC(=O)[C@H](CCC(=O)O)NC(=O)[C@H](C)NC(=O)[C@@H](N)Cc1cnc[nH]1)[C@@H](C)O)C(C)C)C(=O)N[C@@H](C)C(=O)N[C@@H](Cc1c[nH]c2ccccc12)C(=O)N[C@@H](CC(C)C)C(=O)N[C@H](C(=O)N[C@@H](CCCCN)C(=O)NCC(=O)N[C@@H](CCCNC(=N)N)C(N)=O)C(C)C`, in data set [1], the remaining at 12 h was determined as 0%. The same molecule displayed a Retention_time in data set [2] of 14.721 min. The half-life in data set [3] is 2.7 h. Besides, the remaining at 2 h in data set [4] stood at 55.4%. For the same molecule, the remaining at 1 h in data set [5] was 69.8%. For the same molecule, the remaining at 8 h in data set [6] was determined as 10.7%. Also, the remaining at 4 h in data set [7] was 33.2%.
Turning to `CC[C@H](C)[C@H](NC(=O)[C@H](Cc1ccccc1)NC(=O)[C@H](CCC(=O)O)NC(=O)[C@H](CCCCN)NC(=O)[C@H](C)NC(=O)[C@H](C)NC(=O)[C@H](CCC(N)=O)NC(=O)CNC(=O)[C@H](CCC(=O)O)NC(=O)[C@H](CC(C)C)NC(=O)[C@H](Cc1ccc(O)cc1)NC(=O)[C@H](CO)NC(=O)[C@H](CO)NC(=O)[C@@H](NC(=O)[C@H](CC(=O)O)NC(=O)[C@H](CO)NC(=O)[C@@H](NC(=O)[C@H](Cc1ccccc1)NC(=O)[C@@H](NC(=O)CN(C)C(=O)[C@H](CCC(=O)O)NC(=O)[C@H](C)NC(=O)[C@@H](N)Cc1cnc[nH]1)[C@@H](C)O)[C@@H](C)O)C(C)C)C(=O)N[C@@H](C)C(=O)N[C@@H](Cc1c[nH]c2ccccc12)C(=O)N[C@@H](CC(C)C)C(=O)N[C@H](C(=O)N[C@@H](CCCCN)C(=O)NCC(=O)N[C@@H](CCCNC(=N)N)C(N)=O)C(C)C`, the remaining at 12 h in data set [1] was determined as 7.5%. This molecule yielded a Retention_time in data set [2] of 14.289 min. Besides, in data set [3], the half-life is 2.42 h. For the same molecule, the remaining at 2 h in data set [4] is 55.5%. Besides, the remaining at 1 h in data set [5] was found to be 75.1%. Moreover, the remaining at 8 h in data set [6] worked out at 15.1%. Besides, the remaining at 4 h in data set [7] was determined as 32.6%.

The values above are taken from ChEMBL document CHEMBL3769397, “A new GLP-1 analogue with prolonged glucose-lowering activity in vivo via backbone-based modification at the N-terminus” (Bioorg Med Chem, 2016).
